Experimental data published in the kinase profiling compilation of Christmann-Franck et al. (2016).

What was measured:
[1] = target: ERBB4 (human) (UniProt Q15303); assay: SelectScreen, TR FRET; details: compound 10.0 µM
[2] = target: INSR (human) (UniProt P06213); assay: SelectScreen, TR FRET; details: compound 10.0 µM
[3] = target: CSF1R (human) (UniProt P07333); assay: HTRF
[4] = target: LRRK2 (human) (UniProt Q5S007); assay: HTRF
[5] = target: LRRK2 (human), Q5S007 [G2019S]; assay: HTRF
[6] = target: PDGFRA (human) (UniProt P16234); assay: HTRF
[7] = target: ABL1 (human) (UniProt P00519); assay: SelectScreen, TR FRET; details: compound 10.0 µM
[8] = target: AKT1 (human) (UniProt P31749); assay: SelectScreen, TR FRET; details: compound 10.0 µM
AKT1 (human), sequence (P31749 whole entry, looked up): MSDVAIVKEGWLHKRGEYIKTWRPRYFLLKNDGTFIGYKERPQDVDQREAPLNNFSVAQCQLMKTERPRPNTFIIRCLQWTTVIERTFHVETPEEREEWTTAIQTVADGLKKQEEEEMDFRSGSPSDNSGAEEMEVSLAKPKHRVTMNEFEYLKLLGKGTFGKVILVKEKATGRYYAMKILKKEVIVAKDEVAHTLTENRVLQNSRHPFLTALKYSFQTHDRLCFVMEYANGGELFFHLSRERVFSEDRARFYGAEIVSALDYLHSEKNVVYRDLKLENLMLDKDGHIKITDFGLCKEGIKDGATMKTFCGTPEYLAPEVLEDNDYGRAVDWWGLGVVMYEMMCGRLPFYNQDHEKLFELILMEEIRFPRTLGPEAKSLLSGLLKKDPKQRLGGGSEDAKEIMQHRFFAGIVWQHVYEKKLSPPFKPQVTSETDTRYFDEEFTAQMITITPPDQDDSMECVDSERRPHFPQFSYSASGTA

[9] = target: AURKA (human) (UniProt O14965); assay: SelectScreen, TR FRET; details: compound 10.0 µM
[10] = target: CAMK2A (human) (UniProt Q9UQM7); assay: SelectScreen, TR FRET; details: compound 10.0 µM
[11] = target: CDK1 CCNB1 (human) (UniProt P06493+P14635); assay: SelectScreen, TR FRET; details: compound 10.0 µM
[12] = target: CDK2 CCNA2 (human) (UniProt P24941+P20248); assay: SelectScreen, TR FRET; details: compound 10.0 µM
[13] = target: CDK5 CDK5R1 p25 (human) (UniProt Q15078+Q00535); assay: SelectScreen, TR FRET; details: compound 10.0 µM
CDK5 CDK5R1 p25 (human), sequence (Q00535 whole entry, looked up): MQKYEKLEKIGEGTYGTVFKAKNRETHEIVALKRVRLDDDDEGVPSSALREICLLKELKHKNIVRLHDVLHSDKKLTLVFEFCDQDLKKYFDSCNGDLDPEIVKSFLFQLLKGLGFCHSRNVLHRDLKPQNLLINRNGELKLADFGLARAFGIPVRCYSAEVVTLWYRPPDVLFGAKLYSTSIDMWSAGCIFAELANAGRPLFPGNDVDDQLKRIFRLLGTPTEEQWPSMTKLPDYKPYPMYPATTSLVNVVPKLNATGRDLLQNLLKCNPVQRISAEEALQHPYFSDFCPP
CDK5 CDK5R1 p25 (human), sequence (Q15078 whole entry, looked up): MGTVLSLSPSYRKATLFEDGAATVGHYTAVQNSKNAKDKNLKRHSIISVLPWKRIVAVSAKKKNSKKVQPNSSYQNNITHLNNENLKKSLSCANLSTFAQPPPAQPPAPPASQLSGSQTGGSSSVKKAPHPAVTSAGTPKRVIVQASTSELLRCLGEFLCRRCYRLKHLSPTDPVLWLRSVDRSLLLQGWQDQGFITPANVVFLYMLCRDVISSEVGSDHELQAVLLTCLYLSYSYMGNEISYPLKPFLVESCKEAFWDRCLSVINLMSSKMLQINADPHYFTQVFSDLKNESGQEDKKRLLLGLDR

[14] = target: CHEK1 (human) (UniProt O14757); assay: SelectScreen, TR FRET; details: compound 10.0 µM
[15] = target: CLK1 (human) (UniProt P49759); assay: SelectScreen, TR FRET; details: compound 10.0 µM
[16] = target: CSF1R (human) (UniProt P07333); assay: SelectScreen, TR FRET; details: compound 10.0 µM
[17] = target: DYRK1B (human) (UniProt Q9Y463); assay: SelectScreen, TR FRET; details: compound 10.0 µM
[18] = target: FLT3 (human) (UniProt P36888); assay: SelectScreen, TR FRET; details: compound 10.0 µM
[19] = target: GSK3B (human) (UniProt P49841); assay: SelectScreen, TR FRET; details: compound 10.0 µM
[20] = target: IRAK4 (human) (UniProt Q9NWZ3); assay: SelectScreen, TR FRET; details: compound 10.0 µM
IRAK4 (human), sequence (Q9NWZ3 whole entry, looked up): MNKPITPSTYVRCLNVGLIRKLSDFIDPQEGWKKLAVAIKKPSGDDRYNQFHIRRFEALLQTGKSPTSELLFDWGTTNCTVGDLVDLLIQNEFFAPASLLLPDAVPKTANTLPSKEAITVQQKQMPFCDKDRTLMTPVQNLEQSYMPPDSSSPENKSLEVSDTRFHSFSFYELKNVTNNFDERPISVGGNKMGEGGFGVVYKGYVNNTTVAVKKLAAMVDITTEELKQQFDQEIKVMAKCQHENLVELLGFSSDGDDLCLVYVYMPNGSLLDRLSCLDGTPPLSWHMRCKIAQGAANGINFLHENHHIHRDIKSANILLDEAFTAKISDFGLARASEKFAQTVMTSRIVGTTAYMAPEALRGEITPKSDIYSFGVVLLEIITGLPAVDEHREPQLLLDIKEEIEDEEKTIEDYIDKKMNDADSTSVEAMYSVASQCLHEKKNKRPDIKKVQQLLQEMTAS

[21] = target: JAK1 JH1 JH2 (human) (UniProt P23458); assay: SelectScreen, TR FRET; details: compound 10.0 µM
[22] = target: LCK (human) (UniProt P06239); assay: SelectScreen, TR FRET; details: compound 10.0 µM
[23] = target: LRRK2 (human) (UniProt Q5S007); assay: SelectScreen, TR FRET; details: compound 10.0 µM
[24] = target: MAP3K7 TAB1 (human) (UniProt Q15750+O43318); assay: SelectScreen, TR FRET; details: compound 10.0 µM
[25] = target: MAPK1 (human) (UniProt P28482); assay: SelectScreen, TR FRET; details: compound 10.0 µM
[26] = target: MAPK10 (human) (UniProt P53779); assay: SelectScreen, TR FRET; details: compound 10.0 µM
MAPK10 (human), sequence (P53779 whole entry, looked up): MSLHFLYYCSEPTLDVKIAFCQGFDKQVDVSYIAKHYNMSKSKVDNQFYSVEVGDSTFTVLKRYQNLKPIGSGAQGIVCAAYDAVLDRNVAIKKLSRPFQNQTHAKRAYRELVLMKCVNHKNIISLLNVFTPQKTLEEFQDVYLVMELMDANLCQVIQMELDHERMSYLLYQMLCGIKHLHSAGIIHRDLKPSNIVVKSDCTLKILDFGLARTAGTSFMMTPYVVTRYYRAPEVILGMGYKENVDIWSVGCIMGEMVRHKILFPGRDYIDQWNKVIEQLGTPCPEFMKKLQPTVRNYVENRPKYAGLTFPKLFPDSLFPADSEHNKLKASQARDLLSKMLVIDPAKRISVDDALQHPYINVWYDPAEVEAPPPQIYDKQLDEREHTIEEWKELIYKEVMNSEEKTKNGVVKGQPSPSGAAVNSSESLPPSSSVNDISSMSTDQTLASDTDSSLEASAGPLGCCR

[27] = target: MARK2 (human) (UniProt Q7KZI7); assay: SelectScreen, TR FRET; details: compound 10.0 µM
[28] = target: PAK4 (human) (UniProt O96013); assay: SelectScreen, TR FRET; details: compound 10.0 µM
[29] = target: PDGFRA (human) (UniProt P16234); assay: SelectScreen, TR FRET; details: compound 10.0 µM
[30] = target: PIK3CA PIK3R1 (human) (UniProt P27986+P42336); assay: SelectScreen, TR FRET; details: compound 10.0 µM
[31] = target: PLK1 (human) (UniProt P53350); assay: SelectScreen, TR FRET; details: compound 10.0 µM
[32] = target: PLK2 (human) (UniProt Q9NYY3); assay: SelectScreen, TR FRET; details: compound 10.0 µM
PLK2 (human), sequence (Q9NYY3 whole entry, looked up): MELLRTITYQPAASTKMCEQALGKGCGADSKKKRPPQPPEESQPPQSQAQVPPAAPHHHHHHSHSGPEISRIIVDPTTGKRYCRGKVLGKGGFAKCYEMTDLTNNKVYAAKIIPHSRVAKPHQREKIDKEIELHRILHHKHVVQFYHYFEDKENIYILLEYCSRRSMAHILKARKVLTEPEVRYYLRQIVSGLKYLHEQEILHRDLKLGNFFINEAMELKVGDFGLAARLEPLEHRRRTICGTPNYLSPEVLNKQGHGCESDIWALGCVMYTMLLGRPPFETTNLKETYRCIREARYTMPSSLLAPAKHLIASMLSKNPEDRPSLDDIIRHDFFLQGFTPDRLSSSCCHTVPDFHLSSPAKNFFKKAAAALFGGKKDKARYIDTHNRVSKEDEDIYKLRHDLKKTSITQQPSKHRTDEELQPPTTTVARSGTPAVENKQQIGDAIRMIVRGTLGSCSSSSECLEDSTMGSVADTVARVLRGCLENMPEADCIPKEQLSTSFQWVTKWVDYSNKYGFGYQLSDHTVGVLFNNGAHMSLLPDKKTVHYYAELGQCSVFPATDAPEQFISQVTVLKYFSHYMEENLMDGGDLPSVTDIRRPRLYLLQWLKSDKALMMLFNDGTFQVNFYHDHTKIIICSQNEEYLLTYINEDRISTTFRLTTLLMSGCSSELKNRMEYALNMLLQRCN

[33] = target: PLK3 (human) (UniProt Q9H4B4); assay: SelectScreen, TR FRET; details: compound 10.0 µM
[34] = target: PRKACA (human) (UniProt P17612); assay: SelectScreen, TR FRET; details: compound 10.0 µM
[35] = target: PRKCB1 (human) (UniProt P05771); assay: SelectScreen, TR FRET; details: compound 10.0 µM
PRKCB1 (human), sequence (P05771 whole entry, looked up): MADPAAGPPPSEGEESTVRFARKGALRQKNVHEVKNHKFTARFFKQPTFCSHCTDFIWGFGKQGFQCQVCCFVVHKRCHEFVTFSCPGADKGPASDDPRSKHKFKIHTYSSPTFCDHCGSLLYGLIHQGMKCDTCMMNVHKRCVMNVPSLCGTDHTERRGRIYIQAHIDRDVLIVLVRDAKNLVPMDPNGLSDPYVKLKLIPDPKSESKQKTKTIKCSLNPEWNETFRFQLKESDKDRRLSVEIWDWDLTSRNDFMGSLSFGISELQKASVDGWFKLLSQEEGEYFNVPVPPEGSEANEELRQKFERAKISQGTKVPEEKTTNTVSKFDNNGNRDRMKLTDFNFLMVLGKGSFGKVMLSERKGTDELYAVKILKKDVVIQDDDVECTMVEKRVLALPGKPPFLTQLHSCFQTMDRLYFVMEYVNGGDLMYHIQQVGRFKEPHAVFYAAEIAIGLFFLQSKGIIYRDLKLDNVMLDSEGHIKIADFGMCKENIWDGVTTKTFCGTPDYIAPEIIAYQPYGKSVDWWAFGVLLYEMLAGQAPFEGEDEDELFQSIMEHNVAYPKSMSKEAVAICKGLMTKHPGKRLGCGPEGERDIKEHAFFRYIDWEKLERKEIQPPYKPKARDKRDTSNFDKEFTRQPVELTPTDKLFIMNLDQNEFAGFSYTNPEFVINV

[36] = target: PTK2B (human) (UniProt Q14289); assay: SelectScreen, TR FRET; details: compound 10.0 µM
[37] = target: RAF1 (human) (UniProt P04049); assay: SelectScreen, TR FRET; details: compound 10.0 µM
[38] = target: RET (human) (UniProt P07949); assay: SelectScreen, TR FRET; details: compound 10.0 µM
[39] = target: RIPK2 (human) (UniProt O43353); assay: SelectScreen, TR FRET; details: compound 10.0 µM
[40] = target: ROCK2 (human) (UniProt O75116); assay: SelectScreen, TR FRET; details: compound 10.0 µM
[41] = target: STK16 (human) (UniProt O75716); assay: SelectScreen, TR FRET; details: compound 10.0 µM
STK16 (human), sequence (O75716 whole entry, looked up): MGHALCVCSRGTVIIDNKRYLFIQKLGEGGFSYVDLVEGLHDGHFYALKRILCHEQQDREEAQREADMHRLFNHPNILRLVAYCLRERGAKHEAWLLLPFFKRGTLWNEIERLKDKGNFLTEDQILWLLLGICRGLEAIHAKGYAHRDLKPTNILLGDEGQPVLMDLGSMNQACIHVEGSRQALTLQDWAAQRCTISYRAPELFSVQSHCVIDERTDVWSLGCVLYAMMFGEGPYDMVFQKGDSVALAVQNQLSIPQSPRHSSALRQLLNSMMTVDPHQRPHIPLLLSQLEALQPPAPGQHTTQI

[42] = target: STK3 (human) (UniProt Q13188); assay: SelectScreen, TR FRET; details: compound 10.0 µM
[43] = target: SYK (human) (UniProt P43405); assay: SelectScreen, TR FRET; details: compound 10.0 µM
[44] = target: TTK (human) (UniProt P33981); assay: SelectScreen, TR FRET; details: compound 10.0 µM

ERBB4 (human), sequence (Q15303 whole entry, looked up): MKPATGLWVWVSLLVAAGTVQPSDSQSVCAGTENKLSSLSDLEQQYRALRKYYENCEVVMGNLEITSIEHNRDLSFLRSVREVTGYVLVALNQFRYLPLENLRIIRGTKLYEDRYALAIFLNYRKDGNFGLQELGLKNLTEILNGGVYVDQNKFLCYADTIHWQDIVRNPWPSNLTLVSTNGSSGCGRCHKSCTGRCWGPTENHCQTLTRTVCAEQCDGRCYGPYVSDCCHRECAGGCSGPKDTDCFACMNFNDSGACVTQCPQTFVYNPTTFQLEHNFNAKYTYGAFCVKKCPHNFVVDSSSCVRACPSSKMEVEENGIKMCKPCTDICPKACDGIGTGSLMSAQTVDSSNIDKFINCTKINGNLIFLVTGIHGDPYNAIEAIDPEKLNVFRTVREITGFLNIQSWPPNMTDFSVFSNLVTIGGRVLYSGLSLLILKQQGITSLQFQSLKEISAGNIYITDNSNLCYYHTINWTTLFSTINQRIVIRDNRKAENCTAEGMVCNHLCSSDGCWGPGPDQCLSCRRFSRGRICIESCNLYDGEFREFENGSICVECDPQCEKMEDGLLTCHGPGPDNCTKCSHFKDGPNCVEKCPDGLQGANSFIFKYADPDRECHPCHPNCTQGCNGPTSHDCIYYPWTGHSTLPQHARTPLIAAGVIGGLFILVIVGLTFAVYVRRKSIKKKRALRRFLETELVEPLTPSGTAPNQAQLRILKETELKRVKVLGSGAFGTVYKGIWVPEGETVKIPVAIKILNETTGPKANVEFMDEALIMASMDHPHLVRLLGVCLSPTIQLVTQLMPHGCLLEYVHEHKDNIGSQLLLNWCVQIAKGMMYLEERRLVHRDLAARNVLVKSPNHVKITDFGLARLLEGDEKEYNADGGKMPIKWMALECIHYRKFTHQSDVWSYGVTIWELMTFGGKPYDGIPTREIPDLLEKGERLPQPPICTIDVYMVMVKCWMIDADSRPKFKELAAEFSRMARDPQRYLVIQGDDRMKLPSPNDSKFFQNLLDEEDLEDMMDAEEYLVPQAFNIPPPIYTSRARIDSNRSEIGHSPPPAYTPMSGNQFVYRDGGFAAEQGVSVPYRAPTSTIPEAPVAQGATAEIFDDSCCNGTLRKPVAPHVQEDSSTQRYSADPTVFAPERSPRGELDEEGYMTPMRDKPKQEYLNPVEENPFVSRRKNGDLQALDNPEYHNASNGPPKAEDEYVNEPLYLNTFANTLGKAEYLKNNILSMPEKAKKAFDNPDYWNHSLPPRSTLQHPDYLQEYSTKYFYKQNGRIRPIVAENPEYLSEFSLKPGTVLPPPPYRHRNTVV

CC(C)Nc1c(C(N)=O)nnc2ccc(-c3ccncc3)cc12
inhibition [1]: 20.6% | inhibition [2]: 13.3%

CC(C)Nc1c(C(N)=O)nnc2cc(-c3ccc(N4CCOCC4)cc3)ccc12
IC50 [3]: 22 nM | IC50 [4]: 9 nM | IC50 [5]: 12 nM | IC50 [6]: 262 nM | inhibition [7]: 55.5% | inhibition [8]: 1.33% | inhibition [9]: 80.8% | inhibition [10]: 17.4% | inhibition [11]: 2.62% | inhibition [12]: 5.12% | inhibition [13]: 3.19% | inhibition [14]: 93.2% | inhibition [15]: 4.04% | inhibition [16]: 97.3% | inhibition [17]: 6.79% | inhibition [1]: 14.7% | inhibition [18]: 98.9% | inhibition [19]: 42.2% | inhibition [2]: -0.801% | inhibition [20]: 17.5% | inhibition [21]: 72.3% | inhibition [22]: 74.7% | inhibition [23]: 98.6% | inhibition [24]: 67.1% | inhibition [25]: -5.26% | inhibition [26]: 16.6% | inhibition [27]: 80.5% | inhibition [28]: 59.5% | inhibition [29]: 97.5% | inhibition [30]: 15.2% | inhibition [31]: 3.31% | inhibition [32]: 5.59% | inhibition [33]: -15.6% | inhibition [34]: -1.97% | inhibition [35]: -0.227% | inhibition [36]: 38.9% | inhibition [37]: 27% | inhibition [38]: 82.8% | inhibition [39]: 44.4% | inhibition [40]: 78% | inhibition [41]: 39.9% | inhibition [42]: 41.9% | inhibition [43]: 81.4% | inhibition [44]: 66.6%

CC(C)Nc1c(C(N)=O)cnc2cc(-c3ccc(S(C)(=O)=O)cc3)ccc12
inhibition [8]: 4.75% | inhibition [10]: -0.0898% | inhibition [11]: 1.38% | inhibition [13]: 2.45% | inhibition [15]: 1.75% | inhibition [17]: 9.19% | inhibition [19]: 6.45% | inhibition [2]: 3.68% | inhibition [26]: 4.17% | inhibition [30]: -1.65% | inhibition [31]: 0.631% | inhibition [32]: 7.12% | inhibition [33]: 0.957% | inhibition [34]: 5.91% | inhibition [35]: 8.27% | inhibition [37]: 16.7%

CC(C)Nc1c(C(N)=O)nnc2cc(-c3ccncc3)ccc12
inhibition [8]: 12.7% | inhibition [10]: 13.6% | inhibition [1]: 22.3% | inhibition [25]: 22.7% | inhibition [31]: 33.4% | inhibition [33]: -0.393%

C[C@@H](Nc1c(C(N)=O)nnc2cc(-c3ccc(S(C)(=O)=O)cc3)ccc12)C1CC1
inhibition [8]: 4.06% | inhibition [10]: 14.6% | inhibition [11]: -2.77% | inhibition [12]: -48.5% | inhibition [13]: -16.4% | inhibition [15]: 5.47% | inhibition [17]: 2.7% | inhibition [1]: 11.7% | inhibition [19]: 28.6% | inhibition [2]: 0.279% | inhibition [20]: 0.691% | inhibition [25]: -52.2% | inhibition [26]: 20.5% | inhibition [30]: 9.68% | inhibition [31]: 1.06% | inhibition [32]: 17.2% | inhibition [33]: 4.63% | inhibition [34]: -0.763% | inhibition [35]: 0.123% | inhibition [37]: 21.3% | inhibition [39]: 28.4% | inhibition [41]: -47.1%

CS(=O)(=O)c1ccc(-c2ccc3c(NC4CCC4)c(C(N)=O)nnc3c2)cc1
inhibition [8]: 4.88% | inhibition [10]: 10.5% | inhibition [11]: 7.35% | inhibition [12]: 2.69% | inhibition [13]: -0.613% | inhibition [15]: 13.7% | inhibition [1]: 3.89% | inhibition [2]: 7.17% | inhibition [20]: -6.26% | inhibition [25]: 2.96% | inhibition [30]: 1.77% | inhibition [31]: 13.7% | inhibition [32]: 10.6% | inhibition [33]: 9.8% | inhibition [34]: 0.0814% | inhibition [35]: -1.63%
